Data taken from BindingDB's records for doi:10.1016/j.bmc.2020.115716 (Chemical Diversity Research Institute, 2020).

Experiments:
[1] = Inhibition of HCV genotype 5a NS5A infected in Huh7 cells assessed as reduction in viral replication incubated 3 days and measured by bright Glo-luciferase reporter gene assay
[2] = Inhibition of HCV genotype 3a NS5A infected in Huh7 cells assessed as reduction in viral replication incubated 3 days and measured by bright Glo-luciferase reporter gene assay
[3] = Inhibition of HCV genotype 4a NS5A infected in Huh7 cells assessed as reduction in viral replication incubated 3 days and measured by bright Glo-luciferase reporter gene assay
[4] = Inhibition of HCV genotype 1a NS5A infected in Huh7 cells assessed as reduction in viral replication incubated 3 days and measured by bright Glo-luciferase reporter gene assay
[5] = Inhibition of HCV genotype 2a NS5A infected in Huh7 cells assessed as reduction in viral replication incubated 3 days and measured by bright Glo-luciferase reporter gene assay
[6] = Inhibition of HCV genotype 1b NS5A infected in Huh7 cells assessed as reduction in viral replication incubated 3 days and measured by Bright-Glo luciferase assay

Row | IC50 [1] [nM] | IC50 [2] [nM] | IC50 [3] [nM] | IC50 [4] [nM] | IC50 [5] [nM] | EC50 [6] [nM] | Structure (SMILES)
1 | 0.107 | 0.093 | 0.007 | 1.07 | 0.104 |  | COC(=O)N[C@H](C(=O)N1CCC[C@H]1c1ncc(-c2ccc(C#CC#Cc3cnc([C@@H]4CCCN4C(=O)[C@H](NC(=O)OC)c4ccccc4)[nH]3)c(-c3cccc(C(C)(C)C)c3)c2)[nH]1)C(C)C
2 | 0.122 | 0.123 | 0.011 | 0.626 | 0.033 |  | COC(=O)N[C@H](C(=O)N1CCC[C@H]1c1ncc(-c2ccc(C#CC#Cc3cnc([C@@H]4CCCN4C(=O)[C@H](NC(=O)OC)c4ccccc4)[nH]3)c(-c3cccc(-c4ccccc4)c3)c2)[nH]1)C(C)C
3 |  | 0.026 | 0.01 | 0.124 | 0.003 |  | COC(=O)N[C@H](C(=O)N1CCC[C@H]1c1ncc(-c2cc(C)c(C#CC#Cc3cnc([C@@H]4CCCN4C(=O)[C@H](NC(=O)OC)c4ccccc4)[nH]3)c(-c3ccccc3)c2)[nH]1)C(C)C
4 | 0.131 | 0.064 | 0.006 | 0.418 |  |  | COC(=O)N[C@H](C(=O)N1CCC[C@H]1c1ncc(-c2ccc(C#CC#Cc3cnc([C@@H]4CCCN4C(=O)[C@H](NC(=O)OC)c4ccccc4)[nH]3)c(-c3ccc(-c4ccccc4)cc3)c2)[nH]1)C(C)C
5 | 0.052 | 0.038 | 0.011 | 0.138 | 0.013 |  | COC(=O)N[C@H](C(=O)N1CCC[C@H]1c1ncc(-c2ccc(C#CC#Cc3cnc([C@@H]4CCCN4C(=O)[C@H](NC(=O)OC)c4ccccc4)[nH]3)c(-c3ccc(N(C)C)cc3)c2)[nH]1)C(C)C
6 | 0.126 | 0.329 | 0.036 | 0.276 | 0.016 | 0.007 | COC(=O)N[C@H](C(=O)N1CCC[C@H]1c1ncc(-c2ccc(C#CC#Cc3cnc([C@@H]4CCCN4C(=O)[C@H](NC(=O)OC)c4ccccc4)[nH]3)cc2)[nH]1)C(C)C
7 | 0.763 | 2.79 | 0.019 | 0.47 | 0.449 |  | COC(=O)N[C@H](C(=O)N1CCC[C@H]1c1ncc(C#CC#Cc2ccc(-c3cnc([C@@H]4CCCN4C(=O)[C@@H](NC(=O)OC)C(C)C)[nH]3)cc2-c2cccc(-c3ccccc3)c2)[nH]1)C(C)C
8 | 0.026 | 0.02 | 0.012 | 0.051 | 0.005 |  | COC(=O)N[C@H](C(=O)N1CCC[C@H]1c1ncc(-c2cc(F)c(C#CC#Cc3cnc([C@@H]4CCCN4C(=O)[C@H](NC(=O)OC)c4ccccc4)[nH]3)c(-c3ccccc3)c2)[nH]1)C(C)C
9 | 0.1 | 0.629 | 0.012 | 0.21 | 0.007 | 0.006 | COC(=O)N[C@H](C(=O)N1CCC[C@H]1c1ncc(C#CC#Cc2ccc(-c3cnc([C@@H]4CCCN4C(=O)[C@H](NC(=O)OC)c4ccccc4)[nH]3)cc2)[nH]1)C(C)C
10 | 0.019 | 0.016 |  | 0.028 | 0.001 |  | COC(=O)N[C@H](C(=O)N1CCC[C@H]1c1ncc(-c2ccc(C#CC#Cc3cnc([C@@H]4CCCN4C(=O)[C@H](NC(=O)OC)c4ccccc4)[nH]3)c(-c3cccc(F)c3F)c2)[nH]1)C(C)C
11 | 0.026 | 0.034 |  | 0.045 |  | 0.0029 | COC(=O)N[C@H](C(=O)N1CCC[C@H]1c1ncc(-c2ccc(C#CC#Cc3cnc([C@@H]4CCCN4C(=O)[C@H](NC(=O)OC)c4ccccc4)[nH]3)c(-c3ccccc3)c2)[nH]1)C(C)C
12 | 0.035 | 0.091 | 0.009 | 0.257 | 0.014 |  | COC(=O)N[C@H](C(=O)N1CCC[C@H]1c1ncc(-c2ccc(C#CC#Cc3cnc([C@@H]4CCCN4C(=O)[C@H](NC(=O)OC)c4ccccc4)[nH]3)c(Sc3ccccc3)c2)[nH]1)C(C)C
13 | 0.267 | 0.864 | 0.008 | 0.248 | 0.028 |  | COC(=O)N[C@H](C(=O)N1CCC[C@H]1c1ncc(C#CC#Cc2ccc(-c3cnc([C@@H]4CCCN4C(=O)[C@@H](NC(=O)OC)C(C)C)[nH]3)cc2-c2ccc3ccccc3c2)[nH]1)C(C)C
14 | 0.12 | 0.459 | 0.019 | 0.064 | 0.015 |  | COC(=O)N[C@H](C(=O)N1CCC[C@H]1c1ncc(C#CC#Cc2c(F)cc(-c3cnc([C@@H]4CCCN4C(=O)[C@@H](NC(=O)OC)C(C)C)[nH]3)cc2-c2ccccc2)[nH]1)C(C)C
15 | 3.1 | > 10 | > 10 | 0.473 | 0.143 | 0.034 | COC(=O)N[C@H](C(=O)N1CCC[C@H]1c1ncc(-c2ccc(C#CC#Cc3cnc([C@@H]4CCCN4C(=O)[C@H](NC(=O)OC)c4ccccc4)[nH]3)c(N3CCN(C)CC3)c2)[nH]1)C(C)C
16 | 0.2 | 4.92 | 0.123 | 1.34 | 0.12 | 0.012 | COC(=O)N[C@H](C(=O)N1CCC[C@H]1c1ncc(-c2ccc(C#CC#Cc3cnc([C@@H]4CCCN4C(=O)[C@@H](NC(=O)OC)C(C)C)[nH]3)cc2)[nH]1)c1ccccc1
17 | 0.129 | 1.31 | 0.007 | 0.072 | 0.03 | 0.002 | COC(=O)N[C@H](C(=O)N1CCC[C@H]1c1ncc(C#CC#Cc2ccc(-c3cnc([C@@H]4CCCN4C(=O)[C@@H](NC(=O)OC)C(C)C)[nH]3)cc2-c2ccccc2)[nH]1)C(C)C
18 | 0.356 | 1.29 | 0.011 | 0.642 | 1.68 |  | COC(=O)N[C@H](C(=O)N1CCC[C@H]1c1ncc(C#CC#Cc2ccc(-c3cnc([C@@H]4CCCN4C(=O)[C@@H](NC(=O)OC)C(C)C)[nH]3)cc2-c2ccc(C(C)(C)C)cc2)[nH]1)C(C)C
19 | 1.4 | 0.353 | 0.548 | 0.113 | 0.023 | 0.004 | COC(=O)N[C@H](C(=O)N1CCC[C@H]1c1ncc(-c2ccc(C#CC#Cc3cnc([C@@H]4CCCN4C(=O)[C@H](NC(=O)OC)c4ccccc4)[nH]3)c(-c3ccc(N4CCN(C)CC4)cc3)c2)[nH]1)C(C)C
20 | 0.019 | 0.04 | 0.008 | 0.214 | 0.013 |  | COC(=O)N[C@H](C(=O)N1CCC[C@H]1c1ncc(-c2ccc(C#CC#Cc3cnc([C@@H]4CCCN4C(=O)[C@H](NC(=O)OC)c4ccccc4)[nH]3)c(Oc3ccccc3)c2)[nH]1)C(C)C
21 | 0.027 | 0.035 | 0.011 | 0.072 | 0.011 |  | COC(=O)N[C@H](C(=O)N1CCC[C@H]1c1ncc(-c2ccc(C#CC#Cc3cnc([C@@H]4CCCN4C(=O)[C@H](NC(=O)OC)c4ccccc4)[nH]3)c(N(C)c3ccccc3)c2)[nH]1)C(C)C
22 | 0.027 | 0.364 | 0.006 | 0.037 | 0.008 |  | COC(=O)N[C@H](C(=O)N1CCC[C@H]1c1ncc(C#CC#Cc2c(C)cc(-c3cnc([C@@H]4CCCN4C(=O)[C@@H](NC(=O)OC)C(C)C)[nH]3)cc2-c2ccccc2)[nH]1)C(C)C
23 | 6.4 | 10.7 | 0.423 | 0.758 | 0.431 | 0.012 | COC(=O)N[C@H](C(=O)N1CCC[C@H]1c1ncc(C#CC#Cc2ccc(-c3cnc([C@@H]4CCCN4C(=O)[C@@H](NC(=O)OC)C(C)C)[nH]3)cc2)[nH]1)c1ccccc1
24 | 0.693 | 0.362 | 0.01 | 2.3 |  |  | COC(=O)N[C@H](C(=O)N1CCC[C@H]1c1ncc(-c2ccc(C#CC#Cc3cnc([C@@H]4CCCN4C(=O)[C@H](NC(=O)OC)c4ccccc4)[nH]3)c(-c3ccc(C(C)(C)C)cc3)c2)[nH]1)C(C)C
